One may read the GI50 as the concentration that inhibits growth by half.

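Method: 48-hour compound exposure of cells in 96-well plates, five concentrations, linear interpolation of endpoints. The concentration for 50% growth inhibition is given as GI50.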 The source made the active and inactive calls. No stated cut-off is given here; in the data, active = GI50 up to about 1.1 µM and inactive = higher. A value given as a limit tells only on which side of the number the result lay.

Among the test systems are A498; ACHN; CAKI-1; HCC 2998; HOP-92; Hs-578T; IGROV-1; Malme-3M; NCI/ADR-RES; OVCAR-3; OVCAR-4; PC-3; SK-MEL-5; SN12C; SNB-19; SNB-75; U-251; UACC-257; UO-31; HOP-18.
Assay in all cases: DTP human tumour cell line panel, 48 h

As for `CCN(CC)c1ccc2cc(-c3nnc(-c4ccccc4)o3)c(=O)oc2c1`, the GI50 in the test with A498 is 45.9 µM (inactive); in the test on ACHN, 18.2 µM (inactive); in the test on CAKI-1 it was > 45.7 µM (inactive); with HCC 2998, 2.2 µM (inactive); with HOP-92, > 100 µM (inactive); in the test on Hs-578T, > 84.9 µM (inactive). The GI50 in the test with IGROV-1 was 28.9 µM (inactive); in the test with Malme-3M, > 66.8 µM (inactive); in the test on NCI/ADR-RES, 7.67 µM (inactive); with OVCAR-3, 7.05 µM (inactive); with OVCAR-4, 39.4 µM (inactive); in the test with PC-3, 30.8 µM (inactive). The GI50 in the test on SK-MEL-5 was 29.5 µM (inactive); with SN12C it was 31.4 µM (inactive); in the test with SNB-19, 25.9 µM (inactive); in the test on SNB-75, 24.3 µM (inactive); in the test on U-251, 11.3 µM (inactive); in the test with UACC-257 it was 32.5 µM (inactive). Moreover, in the test on UO-31, the GI50 was 19.1 µM (inactive).

Take `O=C1CCCCC/C=C2/CC[C@H](Sc3ccccc3)[C@@H]12`: the GI50 with ACHN is 42.5 µM (inactive); with HOP-18, 43.8 µM (inactive); with Malme-3M, > 100 µM (inactive); in the test with OVCAR-4, > 100 µM (inactive); with SK-MEL-5, > 100 µM (inactive); with SN12C, > 100 µM (inactive). In addition, the GI50 is 73.8 µM (inactive) in the test on SNB-19; 36.8 µM (inactive) in the test on SNB-75; 80.7 µM (inactive) with U-251; > 100 µM (inactive) in the test with UACC-257; 50 µM (inactive) in the test with UO-31.

As for `O=C(O)c1cc2c(cc1CC(Cc1ccc3c(c1)CCC3)C(=O)O)CCC2` (stereo not given), the GI50 was > 100 µM (inactive) with A498; > 100 µM (inactive) in the test with ACHN; > 100 µM (inactive) in the test on CAKI-1; > 100 µM (inactive) with HCC 2998; 20.6 µM (inactive) with HOP-92; > 100 µM (inactive) with Hs-578T. Moreover, the GI50 in the test with IGROV-1, in the test with Malme-3M, in the test on NCI/ADR-RES, in the test with OVCAR-3, in the test with OVCAR-4 and in the test on PC-3 was > 100 µM (inactive) each time. Also, the GI50 in the test on SK-MEL-5 is > 100 µM (inactive); in the test on SN12C, > 100 µM (inactive); in the test on SNB-19, > 100 µM (inactive); in the test on SNB-75 it was 98.9 µM (inactive); with U-251, > 100 µM (inactive); in the test on UACC-257, > 100 µM (inactive). The GI50 in the test with UO-31 is > 100 µM (inactive).

On to `CC1(C)C(C#N)C1C1=C(N2CCOCC2)[C@]2(C)C(OC(=O)c3ccccc3)CC[C@@H]2C1` (stereo not given in full), for which the GI50 with A498 was > 100 µM (inactive); in the test with ACHN, > 100 µM (inactive); in the test with CAKI-1 it was > 100 µM (inactive); with HCC 2998 it was > 100 µM (inactive); in the test with HOP-92 it was 61.2 µM (inactive); with Hs-578T, > 100 µM (inactive). Moreover, the GI50 in the test on IGROV-1, with Malme-3M, in the test on NCI/ADR-RES, in the test on OVCAR-3, in the test on OVCAR-4 and in the test with PC-3 was > 100 µM (inactive) each time. The GI50 in the test on SK-MEL-5 was 29.8 µM (inactive); in the test with SN12C, > 100 µM (inactive); in the test with SNB-19 it was > 100 µM (inactive); in the test on SNB-75 it was 20.5 µM (inactive); in the test with U-251 it was > 100 µM (inactive); in the test on UACC-257, > 100 µM (inactive). Besides, the GI50 with UO-31 is > 100 µM (inactive).

For `[O-][S+]1c2ccc(Cl)cc2CC(SSC2Cc3cc(Cl)ccc3[S+]([O-])c3ccccc32)c2ccccc21` (stereo not given), the GI50 in the test on ACHN, with CAKI-1, in the test with HCC 2998, in the test on HOP-18, in the test with HOP-92 and in the test with IGROV-1 was > 100 µM (inactive) in each case. Besides, the GI50 in the test with Malme-3M, with OVCAR-3, in the test on OVCAR-4, in the test with SK-MEL-5, with SN12C and in the test with SNB-19 was > 100 µM (inactive) in each case. Besides, the GI50 with SNB-75, with U-251, with UACC-257 and in the test with UO-31 was > 100 µM (inactive) in each case.

`COc1c2c(cc3c1C(O)N1CC[C@]34[C@H]3O[C@H]3[C@H](OC)C[C@@H]14)OCO2` (stereo not given in full): the GI50 was 50.5 µM (inactive) in the test with A498; > 100 µM (inactive) in the test on ACHN; > 100 µM (inactive) in the test on CAKI-1; > 100 µM (inactive) with HCC 2998; > 100 µM (inactive) with HOP-92; > 100 µM (inactive) in the test with Hs-578T. Also, the GI50 in the test with IGROV-1 is 64.9 µM (inactive); in the test with Malme-3M, 71.1 µM (inactive); in the test with NCI/ADR-RES, > 100 µM (inactive); in the test on OVCAR-3, 16.4 µM (inactive); in the test on OVCAR-4 it was > 100 µM (inactive); in the test with PC-3 it was 39.3 µM (inactive). Also, the GI50 is 64.6 µM (inactive) with SK-MEL-5; > 100 µM (inactive) in the test with SN12C; > 100 µM (inactive) in the test with SNB-19; 86.3 µM (inactive) in the test on SNB-75; > 100 µM (inactive) in the test on U-251; 64.6 µM (inactive) with UACC-257. For the same compound, in the test with UO-31, the GI50 is > 100 µM (inactive).

`IC[P+]1(c2ccccc2)CCCC1`: the GI50 with A498 is 23.8 µM (inactive); with ACHN it was 82.4 µM (inactive); in the test with HCC 2998 it was > 100 µM (inactive); with HOP-18 it was 58.7 µM (inactive); in the test with IGROV-1, > 100 µM (inactive); in the test with Malme-3M it was 44.5 µM (inactive). The GI50 is 43 µM (inactive) with OVCAR-3; 19.1 µM (inactive) in the test with SK-MEL-5; 14.3 µM (inactive) with SN12C; 59.6 µM (inactive) with SNB-19; 26.2 µM (inactive) in the test on SNB-75; 12.8 µM (inactive) in the test on U-251. Further, the GI50 is 52.4 µM (inactive) in the test on UACC-257 and > 100 µM (inactive) in the test on UO-31.

Regarding `COC(=O)CCc1cccnc1/C=N/O`, the GI50 with A498, with ACHN, with CAKI-1, in the test with HOP-18, in the test with HOP-92 and in the test on IGROV-1 was > 100 µM (inactive) in each case. The GI50 with Malme-3M, in the test with OVCAR-3, with OVCAR-4, in the test with SK-MEL-5, in the test on SN12C and in the test with SNB-19 was > 100 µM (inactive) in each case. Moreover, the GI50 in the test with SNB-75, with U-251, in the test on UACC-257 and in the test on UO-31 was > 100 µM (inactive) each time.

Take `Cn1nc(-c2ccccc2)c(C(=O)/C=C/c2ccc(Cl)cc2)c(N2CCCCC2)c1=O`: the GI50 was 1.92 µM (inactive) with ACHN; 0.826 µM (active) with CAKI-1; 2.16 µM (inactive) with HOP-18; 1.91 µM (inactive) with HOP-92; 2.15 µM (inactive) in the test with IGROV-1; 1.95 µM (inactive) in the test on SK-MEL-5. In addition, the GI50 in the test with SN12C is 3.53 µM (inactive); in the test on SNB-19, 2.14 µM (inactive); in the test on U-251, 1.86 µM (inactive); in the test with UO-31, 1.65 µM (inactive).

For the compound `C=CCCCCC1CCC2CCC(CCCCC=C)N12` (stereo not given), the GI50 in the test with ACHN was 14.6 µM (inactive); in the test with CAKI-1, 29.1 µM (inactive); in the test with HCC 2998, 16.1 µM (inactive); with HOP-18, 21.3 µM (inactive); in the test with HOP-92 it was 10.3 µM (inactive); in the test with Malme-3M it was 15.8 µM (inactive). The GI50 in the test with OVCAR-3 is 15.1 µM (inactive); with OVCAR-4 it was 13 µM (inactive); in the test on SK-MEL-5, 13.9 µM (inactive); with SN12C, 15.7 µM (inactive); in the test with SNB-19, 19 µM (inactive); with SNB-75, 28.1 µM (inactive). For the same compound, the values for the GI50 in the test on U-251, in the test with UACC-257 and in the test on UO-31 were 20 µM (inactive), 15.2 µM (inactive) and 13.2 µM (inactive), respectively.

As to `Cc1ccc(/C=C2\CCCC\C2=N\O)cc1`, the GI50 in the test on A498 is 37.7 µM (inactive); with ACHN it was 37.8 µM (inactive); with CAKI-1 it was 56.6 µM (inactive); in the test with HCC 2998, 19.9 µM (inactive); with HOP-18, 59.6 µM (inactive); in the test with IGROV-1, 74.5 µM (inactive). For the same compound, the GI50 in the test with OVCAR-3 was > 100 µM (inactive); with OVCAR-4 it was 38.8 µM (inactive); with SK-MEL-5, 35.1 µM (inactive); in the test with SN12C, 47 µM (inactive); with SNB-19 it was 53 µM (inactive); with SNB-75, 26.2 µM (inactive). For the same compound, the GI50 in the test with U-251 is 60.1 µM (inactive); with UO-31, 26.9 µM (inactive).

In the case of `c1ccc(OCCSCCCCCCCCCCSCCOc2ccccc2)cc1`, the GI50 in the test with A498 is 27.5 µM (inactive); with ACHN it was 48.1 µM (inactive); with HCC 2998 it was > 100 µM (inactive); in the test with HOP-18 it was > 100 µM (inactive); with IGROV-1, > 100 µM (inactive); in the test with Malme-3M it was 14.7 µM (inactive). The GI50 in the test with OVCAR-3 is > 100 µM (inactive); in the test with SK-MEL-5, 28.9 µM (inactive); in the test with SN12C, > 100 µM (inactive); in the test on SNB-19 it was > 100 µM (inactive); in the test with SNB-75 it was > 100 µM (inactive); in the test with U-251 it was 74.3 µM (inactive). The GI50 is > 100 µM (inactive) in the test with UACC-257 and 65.3 µM (inactive) with UO-31.

With `[N-]=[N+]=NC(CI)c1cn([C@H]2C[C@H](O)[C@@H](CO)O2)c(=O)[nH]c1=O` (stereo not given in full), the GI50 was > 100 µM (inactive) in the test with ACHN; > 100 µM (inactive) in the test with CAKI-1; 85.1 µM (inactive) in the test with HCC 2998; 2.92 µM (inactive) in the test on HOP-18; > 100 µM (inactive) in the test with HOP-92; > 100 µM (inactive) with IGROV-1. Besides, the GI50 in the test on Malme-3M, with OVCAR-3, with SK-MEL-5, in the test with SN12C, in the test with SNB-19 and in the test with SNB-75 was > 100 µM (inactive) throughout. Besides, the GI50 with U-251 and in the test with UO-31 was > 100 µM (inactive) in each case.

Values taken from ChEMBL document CHEMBL1201862, “PubChem BioAssay data set” (2004).
